# Source: the supplement of paper PMC10307832
# Legend:
# Assay in all cases: relative viability (nuclei count vs DMSO), 5 days (fraction); higher = more cells survive
# [1] = compound: C=CCn1c(=O)c2cnc(Nc3ccc(N4CCN(C)CC4)cc3)nc2n1-c1cccc(C(C)(C)O)n1 [Adavosertib] + C[C@]1(O)C[C@@H](c2nc(-c3ccc4ccc(-c5ccccc5)nc4c3)c3c(N)nccn32)C1 [Linsitinib] (partner 1 µM)
# Summary of the method: (§1)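 After 5 days of treatment, lung cancer cells in 1536-well plates were fixed and stained in a single step (final 0.05% Triton X-100, 1% formaldehyde, 1 ug/ml Hoechst) and their nuclei counted on 4× images. Treatment had been applied by pin tool the day after seeding as one drug alone or as a fixed anchor-drug dose with five library-drug doses (not always all listed) in √10 steps. Relative viability is the nuclei count of treated wells divided by that of vehicle wells, and values are medians of duplicate plates.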
# [2] = compound: C=CCn1c(=O)c2cnc(Nc3ccc(N4CCN(C)CC4)cc3)nc2n1-c1cccc(C(C)(C)O)n1 [Adavosertib] + Cc1nc(NC(=O)N2CCC[C@H]2C(N)=O)sc1-c1ccnc(C(C)(C)C(F)(F)F)c1 [Alpelisib] (partner 2 µM)
# Summary of the method: as §1
# [3] = compound: C=CCn1c(=O)c2cnc(Nc3ccc(N4CCN(C)CC4)cc3)nc2n1-c1cccc(C(C)(C)O)n1 [Adavosertib] + N=C(N)NC(=N)NCCc1ccccc1 [Phenformin] (partner 250 µM)
# Summary of the method: as §1
# [4] = compound: C=CCn1c(=O)c2cnc(Nc3ccc(N4CCN(C)CC4)cc3)nc2n1-c1cccc(C(C)(C)O)n1 [Adavosertib] + Nc1ncn([C@H]2C[C@H](O)[C@@H](CO)O2)c(=O)n1 [Decitabine] (partner 2 µM)
# Summary of the method: as §1
# [5] = compound: COc1nc(N)nc2c1ncn2[C@@H]1O[C@H](CO)[C@@H](O)[C@@H]1O [Nelarabine] + Cc1cc(Nc2cc(N3CCN(C)CC3)nc(Sc3ccc(NC(=O)C4CC4)cc3)n2)n[nH]1 [Tozasertib] (partner 0.1 µM)
# Summary of the method: as §1
cell line,measurement,setting,value
EMC-BAC-2,relative viability,[1]; first compound 0.01 µM,0.823
same,relative viability,[1]; first compound 0.03162 µM,0.798
same,relative viability,[1]; first compound 0.1 µM,0.862
same,relative viability,[1]; first compound 0.3162 µM,0.751
same,relative viability,[2]; first compound 0.01 µM,0.736
same,relative viability,[2]; first compound 0.03162 µM,0.737
same,relative viability,[2]; first compound 0.1 µM,0.722
same,relative viability,[2]; first compound 0.3162 µM,0.678
same,relative viability,[3]; first compound 0.01 µM,0.547
same,relative viability,[3]; first compound 0.03162 µM,0.557
same,relative viability,[3]; first compound 0.1 µM,0.519
same,relative viability,[3]; first compound 0.3162 µM,0.479
same,relative viability,[4]; first compound 0.03162 µM,0.997
same,relative viability,[4]; first compound 0.1 µM,1.08
same,relative viability,[4]; first compound 0.3162 µM,1.04
same,relative viability,[5]; first compound 0.01 µM,0.307
same,relative viability,[5]; first compound 0.03162 µM,0.236
same,relative viability,[5]; first compound 0.1 µM,0.277
same,relative viability,[5]; first compound 0.3162 µM,0.239
same,relative viability,[5]; first compound 1 µM,0.297
